This series can be described thus: in vitro. As to conditions: human, hela cells, % viability.

For orientation: viability means a read-out of living cells in per cent, often relative to untreated cells. With `COc1cc(F)ccc1-c1nc(N)cc2cccnc12` [CBK081176], the viability at 28.5 h, 10 µM worked out at 88.9%.
With `Cc1nnc(N/N=C/c2ccc(OC3CCCC3)cc2)nc1O` [CBK058025], the viability at 28.5 h, 10 µM amounted to 104%.
The same measure for `Cc1ccccc1CN(CC(=O)NC1CC1)S(=O)(=O)c1ccc(Cl)cc1` [CBK265757]: 98.3%.
For `CCOC(=O)c1c(C)nc(-c2ccccc2)nc1NC(=O)C(C)C` [CBK028118], the viability at 28.5 h, 10 µM turned out to be 90.1%.
Take `Cc1ccc2nsnc2c1NC(=O)COc1ccccc1[N+](=O)[O-]` [CBK263779]: the viability at 28.5 h, 10 µM came to 92.7%.
The result for `CCN(CCN(C)C)Cc1ccc(F)cc1F` [CBK261877] reads 93.1%; that for `N#Cc1ccc(C(=O)N2C[C@@H]3C[C@H](C2)c2ccc(-c4cccs4)c(=O)n2C3)cc1` [CBK289180], 86%.
The result for `CCc1c(C)sc(NC(=S)Nc2cnccn2)c1C(=O)OC` [CBK267088] reads 96.5%.
The result for `OC(CN1CCC(O)(c2ccc(F)cc2)CC1)c1ccc(-c2ccccc2)cc1` (stereo not shown) [CBK286328] reads 90%; that for `COc1ccc(C(C)(C)C)cc1S(=O)(=O)NC1CC(C)(C)NC(C)(C)C1` [CBK267865], 102%; that for `COc1ccccc1-c1ccc(CC2(C(=O)NCc3ccc(F)cc3)CCOCC2)cc1` [CBK286518], 100%.
With `Cc1onc(-c2ccccc2Cl)c1C(=O)N(C)C` [CBK160325], the viability at 28.5 h, 10 µM is 102%.
Take `Cc1cc(=O)n(CC(=O)NC(Cc2ccncc2)[C@H]2C[C@H](O)C2)nc1C` (stereo partly shown) [CBK306641]: the viability at 28.5 h, 10 µM is 101%.
The result for `O=C1CCCC[C@@H]2[C@@H](N1)[C@H](c1ccccc1)CN2Cc1ccc2ccccc2n1` [CBK286281] reads 93.1%; that for `Cn1cnc2cc(C(=O)N3CC(C(=O)N4CCN(c5ccccc5)CC4)C3)ccc21` [CBK285664], 82.5%.
The same measure for `CCN1CCCC1CNC(=O)c1ccc(-c2ccco2)nc1N1CCN(C(=O)c2ccco2)CC1` (stereo not shown) [CBK076206]: 90.4%; for `O=C(Nc1ccccn1)c1cc2ccccc2oc1=O` [CBK287354]: 91.7%; for `CCc1ccc(S(=O)(=O)Nc2cccnc2)cc1` [CBK287782]: 87.5%.
The same measure for `Nc1cccc(-c2cc(Nc3ccc(C4CCCCC4)cc3)ncn2)c1` [CBK091191]: 88.8%; for `FC(F)(F)c1cc(/C=C/c2cccs2)n[nH]1` [CBK020924]: 92.1%.
For `Cc1ccc2cn[nH]c2c1` [CBK016109], the viability at 28.5 h, 10 µM was found to be 123%.
With `Cc1csc2ncnc(NCCc3ccccn3)c12` [CBK017060], the viability at 28.5 h, 10 µM came to 67.1%.
The same measure for `N#Cc1ccc(CSc2ncccc2C(=O)O)cc1` [CBK287187]: 85.9%; for `O=C(Cn1ncc2ccccc2c1=O)NNC(=S)Nc1ccc2c(c1)OCO2` [CBK268751]: 100%; for `CCn1cc(S(=O)(=O)NC2(c3ccc(F)cc3)CC2)cn1` [CBK282801]: 112%.
The result for `N=c1n(CCN2CCOCC2)c2ccccc2n1CC(O)c1cccs1` (stereo not shown) [CBK262895C] reads 99.1%.
The same measure for `Cc1cc(-c2cn3cc(C(=O)NCCCCO)nc3c(=O)n2C)c(C)o1` [CBK307037]: 106%.
With `CC(C)[C@@]1(C)SC(N[C@H]2C[C@H]3C[C@@H]2C[C@@H]3O)=NC1=O` [CBK138400], the viability at 28.5 h, 10 µM was 102%.
The result for `Cc1ccc(C(C)NC(=O)C2CCCN(S(C)(=O)=O)C2)c(C)c1` (stereo not shown) [CBK304349] reads 94.1%; that for `c1cncc(OCCN2CCN(c3nccnc3OCCN3CCOCC3)CC2)c1` [CBK082914], 107%; that for `COc1cccc(C(=O)COC(=O)c2ccc3c(c2)C(=O)N(c2ccc(C(C)=O)cc2)C3=O)c1` [CBK264872], 84%.
The same measure for `c1ccc(Cn2ccc3c(N4CCNCC4)nccc32)cc1` [CBK051672C]: 87.9%; for `Cc1nn(-c2ccccc2)c(CN2C(=O)NC3(CCCC3)C2=O)c1C#N` [CBK305572]: 81.4%.
`COc1cccc(CN(Cc2ccco2)Cc2[nH]cnc2C)c1` [CBK282495]: the viability at 28.5 h, 10 µM came out at 81.4%.
The result for `COc1cc(Nc2nc(-c3cccc(NC(C)=O)c3)cn3ccnc23)cc(OC)c1OC` [CBK038093] reads 99.7%.
For the compound `OC(COc1cccc2c1CCCC2)CN1CCC(O)(c2ccc(Cl)c(C(F)(F)F)c2)CC1` (stereo not shown) [CBK003581], the viability at 28.5 h, 10 µM stood at 102%.
As to `O=C(c1ccoc1)N1CCC2(CCCN(CCCn3c(=O)[nH]c4ccccc43)C2)C1` (stereo not shown) [CBK132818], the viability at 28.5 h, 10 µM was 90.1%.
The same measure for `Cc1ccccc1C(=O)N/N=C/c1ccc(Sc2nnnn2-c2ccccc2)o1` [CBK263259]: 114%; for `CN(C)S(=O)(=O)N(C)c1ccc(C(=O)O)cc1` [CBK287244]: 105%; for `O=C(COc1ccc2ccccc2c1)Nc1ccc(CN2CCOCC2)cc1` [CBK265754]: 121%.
The result for `COc1ccc(-c2ccccc2)cc1NS(=O)(=O)c1ccc2c(c1)CCC(=O)N2` [CBK286368] reads 100%; that for `Cc1nc(Nc2cccc(C3CCCN3C(=O)COc3ccc(F)cc3)n2)sc1C` (stereo not shown) [CBK286019], 87%.
In the case of `CCOC(=O)c1ccccc1NS(=O)(=O)c1ccc(C)c([N+](=O)[O-])c1` [CBK045451], the viability at 28.5 h, 10 µM was 88.7%.
The result for `O=C(Nc1ccc(Oc2ccccc2)cc1)c1cc([N+](=O)[O-])cc2cn[nH]c12` [CBK293985] reads 82.5%; that for `CC(=O)Nc1ccc(S(=O)(=O)N2CCN(C(=O)c3cccnc3)CC2)cc1` [CBK264279], 96.5%; that for `Cc1ccnc(SCC(=O)N2CCc3ccccc3C2)n1` [CBK288218], 91.7%.
For `Cc1oc2ncn(Cc3ccccc3)c(=N)c2c1C` [CBK288160], the viability at 28.5 h, 10 µM came out at 94.4%.
As to `Cc1ncsc1CCOc1nccnc1NC(C)C` [CBK115728], the viability at 28.5 h, 10 µM amounted to 106%.
The same measure for `CN(C)c1ccc(CC(=O)NC2Cc3ccccc3C2)cc1` [CBK200360]: 105%; for `O=C(NCc1cc(C2CC2)[nH]n1)C1(c2ccccc2F)CC1` [CBK283140]: 97.6%.
For the compound `COc1cc(C(=O)Nc2nc(Cc3n[nH]c(=S)n3C)cs2)ccc1C` [CBK296683], the viability at 28.5 h, 10 µM was determined as 90.6%.
As for `CCNC(=O)C(C)NC(=O)c1cnn(-c2ccc(Br)cc2)c1C` (stereo not shown) [CBK305021], the viability at 28.5 h, 10 µM came out at 79.3%.
`CC1(C)C(=O)OC(C(=O)c2ccc(Br)cc2)C(C)(C)C1=O` (stereo not shown) [CBK264600]: the viability at 28.5 h, 10 µM is 90.3%.
Consider `CCN(CC)C(=O)CNS(=O)(=O)c1ccc(C)cc1` [CBK034491], for which the viability at 28.5 h, 10 µM worked out at 103%.
As to `CCCCOc1ccc(S(=O)(=O)Nc2ccc(-c3cn4ccccc4n3)cc2)cc1` [CBK264374], the viability at 28.5 h, 10 µM turned out to be 88.9%.
As for `CC(C)(C)C(=O)N1CCc2c([nH]c3ccccc23)C12CCNC2` (stereo not shown) [CBK059462], the viability at 28.5 h, 10 µM worked out at 97.5%.
The same measure for `CN1CCN(C(=O)CN(Cc2ccccc2)S(C)(=O)=O)CC1` [CBK265745]: 97.6%.
The result for `CCOC(=O)c1c(N)n(-c2cccc(C(F)(F)F)c2)c2nc3ccccc3nc12` [CBK264977] reads 95.6%.
On to `Cc1ccccc1C(=O)NCC(=O)Nc1ccc2cc(Br)cnc2n1` [CBK063312], for which the viability at 28.5 h, 10 µM was 96.5%.
The same measure for `COCC(=O)NC(Cc1ccsc1)c1nc(C)c(C)s1` (stereo not shown) [CBK284773]: 100%.
The result for `COC(=O)c1ccc(NC(=O)N2CCCC2c2nc(-c3ccccc3)c3ccccn23)cc1` (stereo not shown) [CBK046725] reads 102%; that for `CN(C)S(=O)(=O)c1cccc(C(=O)N(Cc2ccc(F)cc2)Cc2ccco2)c1` [CBK267579], 88.8%.
As to `CCOc1ccc2[nH]c(C(=O)NC3CCCOC3)cc2c1` (stereo not shown) [CBK283114], the viability at 28.5 h, 10 µM turned out to be 101%.
The result for `Cc1nnc(CCn2cnc3cccnc3c2=O)s1` [CBK307125] reads 96.7%; that for `Cn1c2c(c3ccccc31)CCOC21CCNCC1` [CBK081142], 99.3%; that for `CN(C)S(=O)(=O)Nc1ccc2c(ccn2Cc2ccccc2)c1` [CBK155765], 86.6%.
The result for `CC(C)c1ccc(NC(=O)CSc2nnc(CN3CCOCC3)n2C)cc1` [CBK268235] reads 93.7%.
The same measure for `COc1ccc2c(c1)C1(CC(=O)N(C)C1=O)C(=O)N2CC(=O)O` (stereo not shown) [CBK076118]: 100%.
Take `CC(C)c1ccc(CN2CCCN(c3cc(OCCc4c[nH]c5ccccc45)ncn3)CC2)cc1` [CBK083280T]: the viability at 28.5 h, 10 µM came to 106%.
The same measure for `COCCCNC(=O)COc1cc(C)ccc1C` [CBK264625]: 88.4%; for `O=C1CCC(=O)N1CCn1c(=O)n(S(=O)(=O)c2ccc(-c3ccccc3)cc2)c2ccccc21` [CBK106494]: 112%; for `COCCC(=O)N1C2CCC(C2)[C@@H]1COc1ccc(F)cc1` (stereo partly shown) [CBK284604]: 96%.
In the case of `C=CCSc1nnc(CSc2nc3sc4c(c3c(=O)[nH]2)CCCC4)n1-c1ccccc1` [CBK263341], the viability at 28.5 h, 10 µM was 94.4%.
With `O=C(O)Cc1ccc(NC(=O)CN2C(=O)c3ccccc3C2=O)cc1` [CBK268562], the viability at 28.5 h, 10 µM amounted to 104%.
For `CC(C)[C@@H](CO)Nc1nc(-c2ccccc2Cl)cn2ccnc12` [CBK037368], the viability at 28.5 h, 10 µM turned out to be 101%.
As to `C=CCn1c(Cc2csc(NC(=O)c3ccc([N+](=O)[O-])cc3Cl)n2)n[nH]c1=S` [CBK295291], the viability at 28.5 h, 10 µM came out at 76.1%.
The result for `O=S(=O)(Cc1cccc(F)c1F)c1cc2c(N3CCNCC3)nccc2s1` [CBK045690C] reads 89.1%; that for `COc1ccc(NS(=O)(=O)c2ccc(Cl)c(C(=O)Nc3ccccc3C(=O)O)c2)cc1` [CBK263209], 104%; that for `Cn1nc2c(c1C(=O)N1CCc3[nH]c4ccccc4c3C1)CCCC2` [CBK281844], 79.7%.

For the origin of these results see paper PMC12040169 (PLOS Biology, 2025).
